Where “and” joins values, the source holds several entries; their conditions need not be identical. Identical values can stand only once. Toxic doses and inconclusive results are not listed. Rule for the calls: active = survival T/C of 150% or more; inactive = T/C below 125% in these data.
System: P388 leukemia ip, CD2F1 mice, survival T/C
Experiment: NCI In Vivo Anticancer Drug Screen. Data for tumor model P388 Leukemia (intraperitoneal) in CD2F1 (CDF1) mice
Settings: endpoint: median survival time, higher = longer survival
Procedure, shortened: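 Mice carrying the transplanted tumor received test compound or vehicle. Survival was recorded in each group, and the value is the treated-group measurement divided by that of the vehicle-treated control group.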

[1] = dose: 100.0 mg/kg/injection, schedule: Q01DX009 (ip), vehicle: suspension in saline
[2] = dose: 50.0 mg/kg/injection, schedule: Q01DX009 (ip), vehicle: saline
[3] = dose: 100.0 mg/kg/injection, schedule: Q01DX009 (ip), vehicle: saline
[4] = dose: 200.0 mg/kg/injection, schedule: Q01DX009 (ip), vehicle: saline
[5] = dose: 50.0 mg/kg/injection, schedule: Q01DX005 (ip), vehicle: Klucel (hydroxypropylcellulose) (HPC)
[6] = dose: 100.0 mg/kg/injection, schedule: Q01DX005 (ip), vehicle: Klucel (hydroxypropylcellulose) (HPC)
[7] = dose: 200.0 mg/kg/injection, schedule: Q01DX005 (ip), vehicle: Klucel (hydroxypropylcellulose) (HPC)
[8] = dose: 100.0 mg/kg/injection, schedule: Q04DX003 (ip), vehicle: saline with Tween-80
[9] = dose: 200.0 mg/kg/injection, schedule: Q04DX003 (ip), vehicle: saline with Tween-80
[10] = dose: 50.0 mg/kg/injection, schedule: Q01DX009 (ip), vehicle: Klucel (hydroxypropylcellulose) (HPC)
[11] = dose: 100.0 mg/kg/injection, schedule: Q01DX009 (ip), vehicle: Klucel (hydroxypropylcellulose) (HPC)
[12] = dose: 200.0 mg/kg/injection, schedule: Q01DX009 (ip), vehicle: Klucel (hydroxypropylcellulose) (HPC)
[13] = dose: 25.0 mg/kg/injection, schedule: Q01DX009 (ip), vehicle: water
[14] = dose: 50.0 mg/kg/injection, schedule: Q01DX009 (ip), vehicle: water
[15] = dose: 100.0 mg/kg/injection, schedule: Q01DX009 (ip), vehicle: water
[16] = dose: 200.0 mg/kg/injection, schedule: Q01DX009 (ip), vehicle: water

Measured: T/C

C/C(CCn1[nH]c(=O)ccc1=O)=N\NS(=O)(=O)c1ccc(C)cc1
inactive: dose: 60.0 mg/kg/injection, schedule: Q01DX005 (ip), vehicle: saline with Tween-80 103 % of control | dose: 120.0 mg/kg/injection, schedule: Q01DX005 (ip), vehicle: saline with Tween-80 109 % of control | dose: 134.0 mg/kg/injection, schedule: Q01DX005 (ip), vehicle: saline with Tween-80 105 % of control

COC(=O)C1Cc2c([nH]c3ccccc23)C(C)(C)N1 (stereo not drawn)
inactive: dose: 25.0 mg/kg/injection, schedule: Q01DX009 (ip), vehicle: suspension in saline 99 % of control | dose: 50.0 mg/kg/injection, schedule: Q01DX009 (ip), vehicle: suspension in saline 93 % of control | [1] 93 % of control

CC(Cc1ccc(O)cc1)NCC(O)c1cc(O)cc(O)c1 (stereo not drawn)
inactive: [2] 96 % of control | dose: 66.0 mg/kg/injection, schedule: Q01DX009 (ip), vehicle: saline 99 % of control and 87 % of control | [3] 99 % of control and 100 % of control | dose: 150.0 mg/kg/injection, schedule: Q01DX009 (ip), vehicle: saline 91 % of control and 93 % of control | [4] 112 % of control

Cc1ccc2nccnc2c1
inactive: [2] 101 % of control | [3] 99 % of control | [4] 101 % of control | dose: 400.0 mg/kg/injection, schedule: Q01DX009 (ip), vehicle: saline 100 % of control

Cc1n[nH]c(=O)c(C#N)c1C
inactive: [5] 95 % of control | [6] 100 % of control | [7] 95 % of control

CCOC(=O)C(CCC[n+]1cc2ccccc2c2ccccc21)C(=O)OCC
inactive: dose: 50.0 mg/kg/injection, schedule: Q01DX005 (ip), vehicle: saline 106 % of control | dose: 100.0 mg/kg/injection, schedule: Q01DX005 (ip), vehicle: saline 101 % of control | dose: 200.0 mg/kg/injection, schedule: Q01DX005 (ip), vehicle: saline 101 % of control

CCOC(=O)c1cnc2cc(C)cc(C)c2c1Nc1ccc2c(c1)OCO2
inactive: dose: 60.0 mg/kg/injection, schedule: Q01DX005 (ip), vehicle: Klucel + Tween-80 100 % of control | dose: 120.0 mg/kg/injection, schedule: Q01DX005 (ip), vehicle: Klucel + Tween-80 92 % of control | dose: 240.0 mg/kg/injection, schedule: Q01DX005 (ip), vehicle: Klucel + Tween-80 87 % of control

Cc1ccc(S(=O)(=O)NCCCl)cc1
inactive: dose: 25.0 mg/kg/injection, schedule: Q04DX003 (ip), vehicle: saline with Tween-80 104 % of control | dose: 50.0 mg/kg/injection, schedule: Q04DX003 (ip), vehicle: saline with Tween-80 99 % of control | [8] 114 % of control | [9] 98 % of control

O=C(CC(NO)c1ccccc1)NO (stereo not drawn)
inactive: [10] 99 % of control | [11] 105 % of control | [12] 115 % of control

O=[N+]([O-])c1ccc(/C=C(/c2ccc([N+](=O)[O-])o2)S(=O)(=O)C(Cl)(Cl)Cl)cc1
inactive: dose: 25.0 mg/kg/injection, schedule: Q01DX009 (ip), vehicle: saline 100 % of control | [2] 89 % of control | [3] 91 % of control | [1] 86 % of control

CCC1OC(O)C=CC1=O (stereo not drawn)
inactive: dose: 1.5 mg/kg/injection, schedule: Q01DX005 (ip), vehicle: saline 99 % of control | dose: 3.0 mg/kg/injection, schedule: Q01DX005 (ip), vehicle: saline 93 % of control

COC(=O)C(N)C(C)O (stereo not drawn)
inactive: dose: 12.5 mg/kg/injection, schedule: Q01DX009 (ip), vehicle: water 97 % of control | [13] 101 % of control | [14] 89 % of control | [15] 102 % of control | [16] 102 % of control

COc1ccc(/C(C#N)=C\c2ccnc3ccccc23)cc1
inactive: dose: 1.56 mg/kg/injection, schedule: Q01DX009 (ip), vehicle: distilled water + Tween-80 103 % of control | dose: 3.13 mg/kg/injection, schedule: Q01DX009 (ip), vehicle: distilled water + Tween-80 94 % of control | dose: 6.25 mg/kg/injection, schedule: Q01DX009 (ip), vehicle: distilled water + Tween-80 93 % of control | dose: 12.5 mg/kg/injection, schedule: Q01DX009 (ip), vehicle: distilled water + Tween-80 94 % of control | dose: 25.0 mg/kg/injection, schedule: Q01DX009 (ip), vehicle: distilled water + Tween-80 91 % of control

CCCCN(CCCC)C1CCC(Nc2ccnc3cc(Cl)ccc23)CC1 (stereo not drawn)
inactive: [5] 98 % of control | [6] 95 % of control

CC(N)(CCC(=O)O)C(=O)O (stereo not drawn)
inactive: [10] 98 % of control | [11] 96 % of control | [12] 97 % of control | dose: 400.0 mg/kg/injection, schedule: Q01DX009 (ip), vehicle: Klucel (hydroxypropylcellulose) (HPC) 103 % of control

O=NN(CCCl)C(=O)NC1C2CC3CC(C2)CC1C3 (stereo not drawn)
inactive: dose: 1.78 mg/kg/injection, schedule: Q01DX009 (ip), vehicle: other 118 % of control | dose: 2.2 mg/kg/injection, schedule: Q04DX003 (ip), vehicle: other 104 % of control | dose: 2.66 mg/kg/injection, schedule: Q01DX009 (ip), vehicle: other 116 % of control | dose: 3.3 mg/kg/injection, schedule: Q04DX003 (ip), vehicle: other 118 % of control | dose: 100.0 mg/kg/injection, schedule: Q04DX003 (ip), vehicle: other 105 % of control
active: dose: 4.0 mg/kg/injection, schedule: Q01DX009 (ip), vehicle: other 169 % of control | dose: 6.0 mg/kg/injection, schedule: Q01DX009 (ip), vehicle: other 225 % of control | dose: 7.5 mg/kg/injection, schedule: Q04DX003 (ip), vehicle: other 177 % of control | dose: 12.5 mg/kg/injection, schedule: Q04DX003 (ip), vehicle: other 180 % of control | dose: 25.0 mg/kg/injection, schedule: Q04DX003 (ip), vehicle: other 300 % of control | dose: 50.0 mg/kg/injection, schedule: Q04DX003 (ip), vehicle: other 300 % of control

O=C(/C=N/O)Nc1cccnc1
inactive: [10] 109 % of control | [11] 109 % of control | [12] 109 % of control

CCCCC/C(C=O)=C\c1ccccc1
inactive: [8] 118 % of control | [9] 100 % of control | dose: 400.0 mg/kg/injection, schedule: Q04DX003 (ip), vehicle: saline with Tween-80 109 % of control

COc1ccc(C(O)c2cc(C(F)(F)F)cc(C(F)(F)F)c2)cc1OC (stereo not drawn)
inactive: [5] 100 % of control | [6] 92 % of control | [7] 91 % of control

O=C(O)Cc1c[nH]c2ccccc12
inactive: dose: 100.0 mg/kg/injection, schedule: Q01DX001 (ip), vehicle: saline with Tween-80 105 % of control | dose: 200.0 mg/kg/injection, schedule: Q01DX001 (ip), vehicle: saline with Tween-80 100 % of control | dose: 400.0 mg/kg/injection, schedule: Q01DX001 (ip), vehicle: saline with Tween-80 99 % of control

CCCC(OC(C)=O)c1coc(C)c1 (stereo not drawn)
inactive: dose: 100.0 mg/kg/injection, schedule: Q01DX001 (ip), vehicle: saline 104 % of control | dose: 200.0 mg/kg/injection, schedule: Q01DX001 (ip), vehicle: saline 100 % of control | dose: 400.0 mg/kg/injection, schedule: Q01DX001 (ip), vehicle: saline 104 % of control

CC[C@]12C=CCN3CC[C@@]4(c5ccc(OC)cc5N(C)[C@H]4[C@@](O)(C(=O)OC)[C@@H]1OC(C)=O)[C@@H]32
inactive: [5] 98 % of control | [6] 97 % of control

COC(=O)CCCNC(C)C
inactive: [13] 97 % of control | [14] 100 % of control | [15] 98 % of control | [16] 99 % of control | dose: 400.0 mg/kg/injection, schedule: Q01DX009 (ip), vehicle: water 99 % of control

COc1c2c(c(O)c3c4c(c(C)cc13)C1OC3(C(OC)OC5CC(C)(O)C(OC6CC(C)(O)C(O)C(C)O6)C(C)O5)OC1C(OC)(O4)C31CO1)C(=O)C(O)CC2OC1CC(C)(O)C(OC(C)=O)C(C)O1 (stereo not drawn)
active: dose: 0.06 mg/kg/injection, schedule: Q01DX005 (ip), vehicle: saline 158 % of control | dose: 0.13 mg/kg/injection, schedule: Q01DX005 (ip), vehicle: saline 155 % of control and 166 % of control

Source: PubChem BioAssay AID330 (DTP/NCI, 2004)
